Laboratory results published in patent US20090286831A1, “VR1 Receptor Ligands and u-Opioid Receptor Ligands for the Treatment of Pain” (priority 2006, published 2009).
Read-outs that look alike come from different tables or passages of the source. Marks after values point to notes of the source that are not given here.

Experiments:
[1] = biological target: T1, human recombinant μ-opioid receptor (Homo sapiens, UniProt P35372); assay: Ki value at the μ-opioid receptor (Experiment 4); assay type: binding
T1 construct: expressed in transfected cells; host or cells: CHO-K1 cells (membrane preparation)

human VR1 = biological target: T2, human VR1 (Homo sapiens, UniProt Q8NER1); assay: FLIPR pH assay; assay type: cell-based
T2 construct: expressed in transfected cells; host or cells: CHO K1 cells (ECACC), stably transfected
From the text: (§1) The agonist or antagonist effect of substances can be determined at the vanilloid receptor 1 (VR1/TRPV1) of the human and rat species with the assay described below. Accordingly, the Ca^2+ influx through the channel is quantified by means of a Ca^2+-sensitive dye (Fluo-4, Molecular Probes Europe BV, Leiden, The Netherlands) in the fluorescent imaging plate reader (FLIPR, Molecular Devices, Sunnyvale, USA).
(§2) Chinese hamster ovary cells (CHO K1 cells, ECACC, England) are stably transfected with human or rat VR1 cDNA. For functional studies these cells are plated onto poly-D-lysine-coated black 96-hole plates with a clear base (BD Biosciences, Heidelberg, Germany) in a density of 25 000 cells/cavity. The cells are incubated overnight at 37° C. with 5% CO2 in culture medium (nutrient mixture Ham's F12, Gibco Invitrogen GmbH, Karlsruhe, Germany) with 10% vol. FBS (foetal bovine serum, Gibco Invitrogen GmbH, Karlsruhe, Germany) and 18 μg/ml of L-proline (Gibco Invitrogen GmbH, Karlsruhe, Germany). On the following day, the cells are laden with 2 μM Fluo-4 and 0.01% vol. Pluronic F127 (Molecular Probes Europe BV, Leiden, The Netherlands) in HBSS buffer (Hank's buffered saline solution, Gibco Invitrogen GmbH, Karlsruhe, Germany) for 30 min at 37° C. The plates are then washed 3 times in HBSS buffer and after further incubation for 15 minutes at room temperature are placed in the FLIPR for the Ca^2+ measurement. In this case, the Ca^2+-dependent fluorescence is measured before and after the addition of substances (λex=488 nm, λem=540 nm). Quantification occurs as a result of the measurement of the highest fluorescence intensity (FC, fluorescence counts) over time.
In the pH assay, HBSS that now contains 60 mM MES instead of capsaicin is applied to human VR1-transfected CHO K1 cells (adjusted pH value of the addition solution is 4.95). Percentage inhibition and IC50 values are raised and evaluated as already described for the capsaicin test.

[2] = biological target: T3, vanilloid receptor 1 (VR1/TRPV1) (Homo sapiens, UniProt Q8NER1); assay: FLIPR capsaicin assay; assay type: cell-based, human or rat
T3 construct: expressed in transfected cells; host or cells: CHO K1 cells (ECACC), stably transfected
From the text: as §1, §2
The FLIPR protocol consists of 2 substance additions. Test substances (10 μM) are firstly pipetted onto the cells and the Ca^2+ influx is compared to the control (capsaicin 10 μM). This gives the specification in % activation in relation to the Ca^2+ signal after adding 10 μM of capsaicin. After 5 minutes incubation 100 nM of capsaicin are applied and the influx of Ca^2+ likewise determined. Desensitising agonists and antagonists lead to a suppression of the Ca^2+ influx. Inhibition values [%] are calculated in comparison to the maximum achievable inhibition with a saturating concentration of […] or another reference antagonist. The test substance is added in different concentrations to determine the IC50 and functional Ki value ((f)Ki). Triple determinations (n=3) are conducted and these are repeated in at least one further independent experiment (N>=2). A capsaicin dose action curve is generated to incorporate the thus determined EC50 values into the associated (f)Ki determination. EC50/IC50 values are calculated using ‘Prism4’ software from GraphPad Software™ or with XLfit4™ (ID Business Solutions Ltd.). (f)Ki values are calculated in accordance with the modified Cheng-Prusoff equation (Cheng, Prusoff; Biochem. Pharmacol. 22, 3099-3108, 1973). Testing for non-specific inhibition of the fluorescence as a result of the substances is conducted by activating wild type CHO K1 cells incubated with the same test substances with ATP (10 μM final concentration).

[3] = test system: rats after spinal nerve ligature; assay: Mono-neuropathic pain after spinal nerve ligature (Chung model), electronic von Frey; assay type: in vivo, rat
Procedure: Sprague Dawley rats (140-160 g body weight) were used for the following animal models. Sprague Dawley rats (140-160 g body weight) from a commercial breeder (Janvier, Genest St. Isle, France) were used. The animals were kept under standard conditions: light-dark rhythm (06:00 to 18:00 h light, 18:00 to 06:00 h dark), room temperature 19-23° C., relative air humidity 45-65%, air exchange 19 times per hour, air movement <0.2 m/s, free choice of tap water and standard feed, Macrolon Type 4 cages with 5 animals per cage. The solutions of the test substances and/or vehicles (10% […], 5% Cremophor EL, 5% glucose) were administered intravenously.
Under pentobarbital narcosis (Narcoren®, […] i.p., Merial GmbH, Hallbergmoos, Germany), the L5, L6 spinal nerves were firmly bound. The left L5 and L6 spinal nerves were exposed by removing a piece of paravertebral muscle and a portion of the left spinal process of the L5 lumbar vertebral body. The L5 and L6 spinal nerves were carefully isolated and bound with a firm ligature (NC silk, black, USP 5/0, metric 1, Braun Melsungen AG, Melsungen, Germany) (Kim and Chung, An experimental model for peripheral neuropathy produced by segmental spinal nerve ligature in the rat, Pain, 50, 1992, 355-363). After haemostasis was determined, the muscle and adjacent tissue were sutured and the wound closed by metal clamps. After a one-week recovery period the animals were placed in cages with a wire base closed to the top by a plastic hood for measurement of the mechanical allodynia. The animals were kept in this cage until their explorative behaviour had decreased.
The threshold for the tactile allodynia was measured by means of an electronic von Frey anaesthesiometer (Somedic AB, Malmö, Sweden). The animals were randomly divided into groups of 10 animals. Each group received an individual dose of test substance or vehicle and the measurements were conducted 0.5 h before application and at various times after intravenous administration. Both the ipsi- and the contra-lateral rear paw were tested. The median of five stimulations gave a measured data point. The data were determined as % maximum possible effect (% MPE) from the pre-tests of the Chung individual animals (=0% MPE) and the test values of an independent sham control group (=100% MPE). The effect of the test substance and the vehicle was calculated for each measurement time (i.e. 0.5, 1 and 3 h after application) as inter-individual % MPE value. […] The corresponding threshold values are given in gram (mean±SEM).

rats = assay: Tail-flick (hot beam) test in rats; assay type: in vivo, rat; details: dosage 1 mg/kg p.o.
[4] = human VR1-transfected CHO K1 cells, 60 mM MES, pH 4.95, read-out: IC50 (pH)
[5] = Oxycodone 2.5 mg/kg i.v. group, Control (pre-test 0.5 h before application)
[6] = Oxycodone 2.5 mg/kg i.v., 30 min
[7] = Oxycodone 2.5 mg/kg i.v., 60 min
[8] = Oxycodone 2.5 mg/kg i.v., 180 min
[9] = Oxycodone 5 mg/kg i.v. group, Control (pre-test 0.5 h before application)
[10] = Oxycodone 5 mg/kg i.v., 180 min
[11] = functional Ki, capsaicin 100 nM, VR1-transfected CHO K1 cells, modified Cheng-Prusoff, read-out: f(Ki) (VR1)
[12] = read-out: % inhibition (pH assay)
[13] = AMG 517 2.5 mg/kg i.v. group, Control (pre-test 0.5 h before application)
[14] = AMG 517 2.5 mg/kg i.v., 180 min

T2 sequence (Q8NER1 whole entry): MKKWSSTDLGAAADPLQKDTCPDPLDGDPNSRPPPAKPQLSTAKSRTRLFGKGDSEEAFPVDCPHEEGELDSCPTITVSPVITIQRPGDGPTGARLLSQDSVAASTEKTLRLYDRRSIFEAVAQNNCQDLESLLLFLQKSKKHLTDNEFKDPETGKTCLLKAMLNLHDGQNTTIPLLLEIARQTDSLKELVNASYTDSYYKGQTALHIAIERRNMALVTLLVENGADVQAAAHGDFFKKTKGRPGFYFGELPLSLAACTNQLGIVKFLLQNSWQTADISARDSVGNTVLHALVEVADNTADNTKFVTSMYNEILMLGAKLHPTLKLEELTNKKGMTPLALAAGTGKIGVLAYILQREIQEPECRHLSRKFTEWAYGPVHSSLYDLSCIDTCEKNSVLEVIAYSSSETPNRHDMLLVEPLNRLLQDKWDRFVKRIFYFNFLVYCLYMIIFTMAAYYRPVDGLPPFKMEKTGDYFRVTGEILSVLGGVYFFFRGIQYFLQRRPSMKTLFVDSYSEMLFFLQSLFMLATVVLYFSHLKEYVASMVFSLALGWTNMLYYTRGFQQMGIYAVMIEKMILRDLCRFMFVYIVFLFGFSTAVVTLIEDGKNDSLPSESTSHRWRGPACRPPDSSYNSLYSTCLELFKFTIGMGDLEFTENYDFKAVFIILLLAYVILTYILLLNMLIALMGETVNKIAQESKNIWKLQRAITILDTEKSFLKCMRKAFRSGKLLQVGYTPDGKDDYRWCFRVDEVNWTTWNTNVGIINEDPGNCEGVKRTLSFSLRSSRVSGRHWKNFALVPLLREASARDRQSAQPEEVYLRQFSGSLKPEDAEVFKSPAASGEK
T3 sequence (Q8NER1 whole entry): as above
T1 sequence (P35372 whole entry): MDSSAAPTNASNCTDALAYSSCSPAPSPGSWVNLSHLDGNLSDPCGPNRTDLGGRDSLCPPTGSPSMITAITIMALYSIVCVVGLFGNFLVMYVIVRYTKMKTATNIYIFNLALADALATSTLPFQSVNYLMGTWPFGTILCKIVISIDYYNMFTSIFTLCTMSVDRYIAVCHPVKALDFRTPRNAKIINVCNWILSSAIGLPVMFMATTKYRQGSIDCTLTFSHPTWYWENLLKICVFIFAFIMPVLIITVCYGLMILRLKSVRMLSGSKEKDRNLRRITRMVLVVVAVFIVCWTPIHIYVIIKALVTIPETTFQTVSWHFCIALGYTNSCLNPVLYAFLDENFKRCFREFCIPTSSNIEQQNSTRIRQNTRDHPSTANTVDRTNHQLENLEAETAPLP

For `CC(C(=O)NCc1ccc(C(F)(F)F)nc1N1CCC(Cc2cccc(F)c2)(N(C)C)CC1)c1ccc(NS(C)(=O)=O)c(F)c1` (centres unmarked) [[9], N-((2-(4-(dimethylamino)-4-(3-fluorobenzyl)piperidin-1-yl)-6-(trifluoromethyl)pyridin-3-yl)methyl)-2-(3-fluoro-4-(methylsulfonamido)phenyl)propanamide], the Ki [1] was 2080 nM, the IC50 (human VR1; [4]) was 145 nM and the Ki [2] was 2.4 nM.
Work on `CC(C(=O)NCc1ccc(C(C)(C)C)nc1N1CCC(Cc2ccccc2)(N(C)C)CC1)c1ccc(NS(C)(=O)=O)c(F)c1` (centres unmarked) [[6], N-((2-(4-benzyl-4-(dimethylamino)piperidin-1-yl)-6-tert-butylpyridin-3-yl)methyl)-2-(3-fluoro-4-(methylsulfonamido)phenyl)propanamide] yielded a Ki [1] of 3130 nM, an IC50 (human VR1; [4]) of 1360 nM and a Ki [2] of 2.6 nM.
With `COc1ccc2c3c1O[C@H]1C(=O)CC[C@@]4(O)[C@@H](C2)N(C)CC[C@]314` [Oxycodone, oxycodone] the “pull-away threshold value, contra-lateral rear paw, mean” value [3, 5] was 54.0 gram, the “pull-away threshold value, ipsi-lateral rear paw, mean” value [3, 5] was 21.0 gram and the “pull-away threshold value, contra-lateral rear paw, mean” value [3, 6] was 67.8 gram. The “pull-away threshold value, ipsi-lateral rear paw, mean” value [3, 6] was 38.2 gram, the “pull-away threshold value, contra-lateral rear paw, mean” value [3, 7] was 53.1 gram and the “pull-away threshold value, ipsi-lateral rear paw, mean” value [3, 7] was 28.0 gram. The “pull-away threshold value, contra-lateral rear paw, mean” value [3, 8] was 52.5 gram, the “pull-away threshold value, ipsi-lateral rear paw, mean” value [3, 8] was 21.9 gram and the “pull-away threshold value, contra-lateral rear paw, mean” value [3, 9] was 52.6 gram. The “pull-away threshold value, ipsi-lateral rear paw, mean” value [3, 9] was 22.8 gram, the “pull-away threshold value, contra-lateral rear paw, mean” value ([3]; Oxycodone 5 mg/kg i.v., 30 min) was 70.0 gram and the “pull-away threshold value, ipsi-lateral rear paw, mean” value ([3]; Oxycodone 5 mg/kg i.v., 30 min) was 41.9 gram. For the same compound, the “pull-away threshold value, contra-lateral rear paw, mean” value ([3]; Oxycodone 5 mg/kg i.v., 60 min) was 56.4 gram, the “pull-away threshold value, ipsi-lateral rear paw, mean” value ([3]; Oxycodone 5 mg/kg i.v., 60 min) was 32.1 gram and the “pull-away threshold value, contra-lateral rear paw, mean” value [3, 10] was 51.4 gram. The “pull-away threshold value, ipsi-lateral rear paw, mean” value [3, 10] was 22.0 gram and the “efficacy (conclusion)” value ([3]; combination of two threshold doses of the same opioid, pull away increased on ipsi- and contra-lateral paw) was “additive antinociceptive efficacy”.
For `CC(C(=O)NCc1ccc(C(F)(F)F)nc1N1CCC(c2ccccc2)(N(C)C)CC1)c1ccc(NS(C)(=O)=O)c(F)c1` (centres unmarked) [[1], N-((2-(4-(dimethylamino)-4-phenylpiperidin-1-yl)-6-(trifluoromethyl)pyridin-3-yl)methyl)-2-(3-fluoro-4-(methylsulfonamido)phenyl)propanamide], the Ki [1] was 46 nM, the IC50 (human VR1) was 806 nM and the “Tail-Flick [% MPE]” value (rats) was 50%^2) % MPE. For the same compound, the Ki [2, 11] was 31.3 nM.
`Cc1cc(C(C)C(=O)NCc2ccc(C(F)(F)F)cc2N2CCC(Cc3ccccc3)(N(C)C)CC2)ccc1NS(C)(=O)=O` (centres unmarked) [[8], N-(2-(4-benzyl-4-(dimethylamino)piperidin-1-yl)-4-(trifluoromethyl)benzyl)-2-(3-methyl-4-(methylsulfonamido)phenyl)propanamide] was tested, and the Ki [1] was 22 nM, the inhibition at 1 µM (human VR1; [12]) was 19% and the inhibition at 5 µM (human VR1; [12]) was 36%. It also gave an inhibition at 10 µM (human VR1; [12]) of 58% and a Ki [2, 11] of 2.5 nM.
`Cc1cc(C(C)C(=O)NCc2ccc(C(F)(F)F)cc2N2CCC(Cc3cccc(F)c3)(N(C)C)CC2)ccc1NS(C)(=O)=O` (centres unmarked) [[11], N-(2-(4-(dimethylamino)-4-(3-fluorobenzyl)piperidin-1-yl)-4-(trifluoromethyl)benzyl)-2-(3-methyl-4-(methylsulfonamido)phenyl)propanamide] gave a Ki [1] of 50 nM, an inhibition at 5 µM (human VR1; [12]) of 35% and an inhibition at 10 µM (human VR1; [12]) of 38%. For the same compound, the Ki [2, 11] was 1.6 nM.
With `CC(C(=O)NCc1ccc(C(F)(F)F)nc1N1CCC(Cc2ccccc2)(N(C)C)CC1)c1ccc(NS(C)(=O)=O)c(F)c1` (centres unmarked) [[5], N-((2-(4-benzyl-4-(dimethylamino)piperidin-1-yl)-6-(trifluoromethyl)pyridin-3-yl)methyl)-2-(3-fluoro-4-(methylsulfonamido)phenyl)propanamide] the Ki [1] was 715 nM, the IC50 (human VR1; [4]) was 111 nM and the Ki [2] was 6.3 nM.
`CC(C(=O)NCc1ccc(C(F)(F)F)nc1N1CCC(c2cccs2)(N(C)C)CC1)c1ccc(NS(C)(=O)=O)c(F)c1` (centres unmarked) [[3], N-((2-(4-(dimethylamino)-4-(thiophen-2-yl)piperidin-1-yl)-6-(trifluoromethyl)pyridin-3-yl)methyl)-2-(3-fluoro-4-(methylsulfonamido)phenyl)propanamide] gave a Ki [1] of 119 nM, an IC50 (human VR1; [4]) of 335 nM and a Ki [2] of 10.9 nM.
For `CC(C(=O)NCc1ccc(C(C)(C)C)nc1N1CCC(c2ccccc2)(N(C)C)CC1)c1ccc(NS(C)(=O)=O)c(F)c1` (centres unmarked) [[2], N-((6-tert-butyl-2-(4-(dimethylamino)-4-phenylpiperidin-1-yl)pyridin-3-yl)methyl)-2-(3-fluoro-4-(methylsulfonamido)phenyl)propanamide], the Ki [1] was 350 nM, the IC50 (human VR1; [4]) was 368 nM and the Ki [2] was 3.7 nM.
`CC(=O)Nc1nc2c(Oc3cc(-c4ccc(C(F)(F)F)cc4)ncn3)cccc2s1` [AMG 517] was tested, and the “pull-away threshold value, contra-lateral rear paw, mean” value [3, 13] was 49.9 gram, the “pull-away threshold value, ipsi-lateral rear paw, mean” value [3, 13] was 20.6 gram and the “pull-away threshold value, contra-lateral rear paw, mean” value ([3]; AMG 517 2.5 mg/kg i.v., 30 min) was 50.9 gram. The “pull-away threshold value, ipsi-lateral rear paw, mean” value ([3]; AMG 517 2.5 mg/kg i.v., 30 min) was 29.2 gram, the “pull-away threshold value, contra-lateral rear paw, mean” value ([3]; AMG 517 2.5 mg/kg i.v., 60 min) was 49.6 gram and the “pull-away threshold value, ipsi-lateral rear paw, mean” value ([3]; AMG 517 2.5 mg/kg i.v., 60 min) was 21.1 gram. For the same compound, the “pull-away threshold value, contra-lateral rear paw, mean” value [3, 14] was 51.7 gram and the “pull-away threshold value, ipsi-lateral rear paw, mean” value [3, 14] was 20.7 gram.
